Laboratory results published in the NIST ThermoML archive (doi:10.1016/j.jct.2016.05.001).
Numbers after ± are expanded uncertainties.

Details: 101.33 kPa, Crystal; for molar entropy: Small (less than 1 g) adiabatic calorimetry; for mass density: X-ray diffraction

Nc1nc2ncc(CNc3ccc(C(=O)N[C@@H](CCC(=O)O)C(=O)O)cc3)nc2c(=O)[nH]1.O.O [folic acid dihydrate]
Details | mass density [kg/m3] | molar entropy [J/K/mol]
4 K | – | 0.0255 ± 0.024
5 K | – | 0.0623 ± 0.025
6 K | – | 0.1291 ± 0.026
7 K | – | 0.2371 ± 0.028
8 K | – | 0.3983 ± 0.031
9 K | – | 0.6346 ± 0.038
10 K | – | 0.962 ± 0.048
15 K | – | 3.956 ± 0.14
20 K | – | 8.733 ± 0.29
25 K | – | 15.36 ± 0.5
30 K | – | 23.55 ± 0.74
35 K | – | 32.93 ± 1
40 K | – | 43.15 ± 1.3
45 K | – | 53.9 ± 0.9
50 K | – | 65 ± 1.1
60 K | – | 87.81 ± 1.4
70 K | – | 111.2 ± 1.8
80 K | – | 134.6 ± 2.2
90 K | – | 157.6 ± 1.3
100 K | – | 180.2 ± 1.5
110 K | – | 202.6 ± 1.6
120 K | – | 224.6 ± 1.8
130 K | – | 246.2 ± 1.9
140 K | – | 267.7 ± 2.1
150 K | 1556 ± 6 | 288.9 ± 2.3
160 K | – | 309.9 ± 2.4
170 K | – | 330.6 ± 2.6
175 K | 1554 ± 6 | –
180 K | – | 351.2 ± 2.7
190 K | – | 371.6 ± 2.9
200 K | 1552 ± 6 | 391.9 ± 3
210 K | – | 412 ± 3.2
220 K | – | 432 ± 3.3
225 K | 1550 ± 6 | –
230 K | – | 451.9 ± 3.4
240 K | – | 471.7 ± 3.6
250 K | 1549 ± 6 | 491.4 ± 3.7
260 K | – | 511 ± 3.9
270 K | – | 530.5 ± 4
273.15 K | – | 536.6 ± 4.1
275 K | 1546 ± 6 | –
280 K | – | 549.9 ± 4.2
290 K | – | 569.3 ± 4.3
298.15 K | – | 585 ± 4.4
300 K | 1543 ± 6 | 588.6 ± 4.5
310 K | – | 607.8 ± 4.6
320 K | – | 627 ± 4.7
325 K | 1542 ± 6 | –
330 K | – | 646.1 ± 4.9
333 K | – | 651.9 ± 4.9
350 K | 1540 ± 6 | –
375 K | 1537 ± 6 | –
